Results as given in ChEMBL document CHEMBL3233012, “Synthesis, antimicrobial and cytotoxic activities of pyrimidinyl benzoxazole, benzothiazole and benzimidazole” (Eur J Med Chem, 2014).
Converted amounts (≈) assume the structure as drawn. The source made the active and inactive calls. The calls are words filed in the database; no cut-off is given here.

Experiments:
Pseudomonas aeruginosa [1] = assay: Antimicrobial activity against Pseudomonas aeruginosa at 25 ug/well after 24 hrs by agar well diffusion method; assay type: functional; settings: read-out: DIZ
Escherichia coli [2] = assay: Antimicrobial activity against Escherichia coli at 25 ug/well after 24 hrs by agar well diffusion method; assay type: functional; settings: read-out: DIZ
Aspergillus niger [3] = assay: Antimicrobial activity against Aspergillus niger at 100 ug/well after 48 hrs by agar well diffusion method; assay type: functional; settings: read-out: DIZ
Staphylococcus aureus [4] = assay: Antimicrobial activity against Staphylococcus aureus at 50 ug/well after 24 hrs by agar well diffusion method; assay type: functional; settings: read-out: DIZ
Penicillium chrysogenum [5] = assay: Ratio of MBC to MIC for Penicillium chrysogenum; assay type: functional
Penicillium chrysogenum [6] = assay: Antimicrobial activity against Penicillium chrysogenum at 100 ug/well after 48 hrs by agar well diffusion method; assay type: functional; settings: read-out: DIZ
Penicillium chrysogenum [7] = assay: Antimicrobial activity against Penicillium chrysogenum after 24 hrs by broth dilution method; assay type: functional
Pseudomonas aeruginosa [8] = assay: Antimicrobial activity against Pseudomonas aeruginosa at 100 ug/well after 24 hrs by agar well diffusion method; assay type: functional; settings: read-out: DIZ
Escherichia coli [9] = assay: Antimicrobial activity against Escherichia coli at 50 ug/well after 24 hrs by agar well diffusion method; assay type: functional; settings: read-out: DIZ
Aspergillus niger [10] = assay: Antimicrobial activity against Aspergillus niger at 50 ug/well after 48 hrs by agar well diffusion method; assay type: functional; settings: read-out: DIZ
Aspergillus niger [11] = assay: Antimicrobial activity against Aspergillus niger at 25 ug/well after 48 hrs by agar well diffusion method; assay type: functional; settings: read-out: DIZ
Pseudomonas aeruginosa [12] = assay: Antimicrobial activity against Pseudomonas aeruginosa ATCC 27853 after 24 hrs; assay type: functional; settings: ATCC 27853, 24 h
Escherichia coli [13] = assay: Antimicrobial activity against Escherichia coli ATCC 25922 after 24 hrs by broth dilution method; assay type: functional; settings: ATCC 25922, 24 h
Pseudomonas aeruginosa [14] = assay: Antimicrobial activity against Pseudomonas aeruginosa ATCC 27853 after 24 hrs by broth dilution method; assay type: functional; settings: ATCC 27853, 24 h
Staphylococcus aureus [15] = assay: Antimicrobial activity against Staphylococcus aureus at 25 ug/well after 24 hrs by agar well diffusion method; assay type: functional; settings: read-out: DIZ
Penicillium chrysogenum [16] = assay: Antimicrobial activity against Penicillium chrysogenum after 24 hrs; assay type: functional
Escherichia coli [17] = assay: Ratio of MBC to MIC for Escherichia coli ATCC 25922; assay type: functional
Penicillium chrysogenum [18] = assay: Antimicrobial activity against Penicillium chrysogenum at 50 ug/well after 48 hrs by agar well diffusion method; assay type: functional; settings: read-out: DIZ
Pseudomonas aeruginosa [19] = assay: Antimicrobial activity against Pseudomonas aeruginosa at 50 ug/well after 24 hrs by agar well diffusion method; assay type: functional; settings: read-out: DIZ
Penicillium chrysogenum [20] = assay: Antimicrobial activity against Penicillium chrysogenum at 25 ug/well after 48 hrs by agar well diffusion method; assay type: functional; settings: read-out: DIZ
Escherichia coli [21] = assay: Antimicrobial activity against Escherichia coli ATCC 25922 after 24 hrs; assay type: functional; settings: ATCC 25922, 24 h
A549 [22] = assay: Cytotoxicity against human A549 cells assessed as reduction in cell viability up to 200 uM after 20 hrs by MTT assay; assay type: functional, cell-based
Staphylococcus aureus [23] = assay: Antimicrobial activity against Staphylococcus aureus at 100 ug/well after 24 hrs by agar well diffusion method; assay type: functional; settings: read-out: DIZ
Staphylococcus aureus [24] = assay: Antimicrobial activity against Staphylococcus aureus ATCC 25923 after 24 hrs by broth dilution method; assay type: functional; settings: ATCC 25923, 24 h
Aspergillus niger [25] = assay: Antimicrobial activity against Aspergillus niger after 24 hrs by broth dilution method; assay type: functional
Pseudomonas aeruginosa [26] = assay: Ratio of MBC to MIC for Pseudomonas aeruginosa ATCC 27853; assay type: functional
Aspergillus niger [27] = assay: Ratio of MBC to MIC for Aspergillus niger; assay type: functional
Staphylococcus aureus [28] = assay: Antimicrobial activity against Staphylococcus aureus ATCC 25923 after 24 hrs; assay type: functional; settings: ATCC 25923, 24 h
Escherichia coli [29] = assay: Antimicrobial activity against Escherichia coli at 100 ug/well after 24 hrs by agar well diffusion method; assay type: functional; settings: read-out: DIZ
Staphylococcus aureus [30] = assay: Ratio of MBC to MIC for Staphylococcus aureus ATCC 25923; assay type: functional
Aspergillus niger [31] = assay: Antimicrobial activity against Aspergillus niger after 24 hrs; assay type: functional
A549 [32] = assay: Cytotoxicity against human A549 cells assessed as reduction in cell viability after 20 hrs by MTT assay; assay type: functional, cell-based

Compound | zone of inhibition at 25 µg/disc (Pseudomonas aeruginosa [1]) [mm] | zone of inhibition at 25 µg/disc (Escherichia coli [2]) [mm] | zone of inhibition at 100 µg/disc (Aspergillus niger [3]) [mm] | zone of inhibition at 50 µg/disc (Staphylococcus aureus [4]) [mm] | Ratio (Penicillium chrysogenum [5]) | zone of inhibition at 100 µg/disc (Penicillium chrysogenum [6]) [mm] | MIC (Penicillium chrysogenum [7]) [µg/mL] | zone of inhibition at 100 µg/disc (Pseudomonas aeruginosa [8]) [mm] | zone of inhibition at 50 µg/disc (Escherichia coli [9]) [mm] | zone of inhibition at 50 µg/disc (Aspergillus niger [10]) [mm] | zone of inhibition at 25 µg/disc (Aspergillus niger [11]) [mm] | MBC (Pseudomonas aeruginosa [12]) [µg/mL] | MIC (Escherichia coli [13]) [µg/mL] | MIC (Pseudomonas aeruginosa [14]) [µg/mL] | zone of inhibition at 25 µg/disc (Staphylococcus aureus [15]) [mm] | zone of inhibition at 50 µg/disc (Penicillium chrysogenum [18]) [mm] | zone of inhibition at 50 µg/disc (Pseudomonas aeruginosa [19]) [mm] | zone of inhibition at 25 µg/disc (Penicillium chrysogenum [20]) [mm] | zone of inhibition at 100 µg/disc (Staphylococcus aureus [23]) [mm] | zone of inhibition at 100 µg/disc (Escherichia coli [29]) [mm] | other results
Cc1cc(SCc2nc3ccccc3s2)nc(SCc2nc3ccccc3s2)n1 | 19 | 24 | 28 | 23 | >2 | 35 | 50 (≈ 110 µM) | 24 | 28 | 25 | 24 | 200 (≈ 442 µM) | 100 (≈ 221 µM) | 50 (≈ 110 µM) | 21 | 32 | 21 | 30 | 25 | 30 | MFC (Penicillium chrysogenum [16]): 200 µg/mL (≈ 442 µM); Ratio (Escherichia coli [17]): >2; MBC (Escherichia coli [21]): > 200 µg/mL; Activity (A549 [22]): inactive; MIC (Staphylococcus aureus [24]): 50 µg/mL (≈ 110 µM); MIC (Aspergillus niger [25]): 50 µg/mL (≈ 110 µM); Ratio (Pseudomonas aeruginosa [26]): >2; Ratio (Aspergillus niger [27]): >2; MBC (Staphylococcus aureus [28]): 200 µg/mL (≈ 442 µM); Ratio (Staphylococcus aureus [30]): >2; MFC (Aspergillus niger [31]): > 200 µg/mL
Cc1cc(SCc2nc3ccccc3o2)nc(SCc2nc3ccccc3o2)n1 | 17 | 21 | 24 | 22 | >2 | 33 | 100 (≈ 238 µM) | 22 | 24 | 22 | 20 | > 200 | 100 (≈ 238 µM) | 100 (≈ 238 µM) | 20 | 30 | 20 | 28 | 23 | 29 | MFC (Penicillium chrysogenum [16]): > 200 µg/mL; Ratio (Escherichia coli [17]): >2; MBC (Escherichia coli [21]): > 200 µg/mL; Activity (A549 [22]): inactive; MIC (Staphylococcus aureus [24]): 50 µg/mL (≈ 119 µM); MIC (Aspergillus niger [25]): 100 µg/mL (≈ 238 µM); Ratio (Pseudomonas aeruginosa [26]): >2; Ratio (Aspergillus niger [27]): >2; MBC (Staphylococcus aureus [28]): > 200 µg/mL; Ratio (Staphylococcus aureus [30]): >2; MFC (Aspergillus niger [31]): > 200 µg/mL
Cc1cc(Nc2nc3ccccc3s2)nc(SCc2nc3ccccc3s2)n1 | 14 | 15 | 21 | 16 |  | 32 |  | 18 | 20 | 19 | 17 |  |  |  | 13 | 29 | 17 | 27 | 18 | 23 | inhibition (A549 [32]): Dose-dependent effect; IC50 (A549 [32]; A549, 20 h): 10.5 µM
Cc1cc(SCc2nc3ccccc3[nH]2)nc(SCc2nc3ccccc3[nH]2)n1 | 22 | 28 | 32 | 26 | 2 | 38 | 12.5 (≈ 29.9 µM) | 27 | 32 | 30 | 27 | 100 (≈ 239 µM) | 50 (≈ 119 µM) | 12.5 (≈ 29.9 µM) | 23 | 35 | 25 | 33 | 29 | 35 | MFC (Penicillium chrysogenum [16]): 25 µg/mL (≈ 59.7 µM); MBC (Escherichia coli [21]): 200 µg/mL (≈ 478 µM); Activity (A549 [22]): inactive; MIC (Staphylococcus aureus [24]): 12.5 µg/mL (≈ 29.9 µM); MIC (Aspergillus niger [25]): 12.5 µg/mL (≈ 29.9 µM); MBC (Staphylococcus aureus [28]): 25 µg/mL (≈ 59.7 µM); Ratio (Staphylococcus aureus [30]): 2; MFC (Aspergillus niger [31]): 100 µg/mL (≈ 239 µM)
